According to EP0410147B1:

Tested on: HRV2-2A
Format: biochemical
Details: for Spaltung des Peptidsubstrats in trans durch HRV2-2A: 30 min 37°C

Substance: TRPIITTYGPSDMYVH [Peptid K, Peptidsubstrat mit Spaltsignal Tyr/Gly statt Ala/Gly]
- Spaltung des Peptidsubstrats: 100%
- Spaltung des Peptidsubstrats durch HRV2-2A in Anwesenheit von 2,5 M NaCl: vollständige Spaltung
- Spaltung des Peptidsubstrats in trans durch HRV2-2A: mit der gleichen Effizienz wie die nativen Peptidsubstrate vergleichbarer Länge von HRV2-2A gespalten

Substance: Ac-TRPIITTAGPSDMYVH-NH2 [Peptid H, Ac-TRPIITTAGPSDMYVH-NH₂]
- Spaltung des Peptidsubstrats in trans durch HRV2-2A: spezifisch zwischen Alanin und Glycin
